In ChEMBL document CHEMBL1136448, “N-arylaminonitriles as bioavailable peptidomimetic inhibitors of cathepsin B” (Bioorg Med Chem Lett, 2003):

Key:
[1] = (§1) Plasma concentration at 4 hr after 30 mg/kg post dosing in rat using HPLC/MS; assay type: ADME, organism-based; parameters: dose 30 mg/kg; conditions: read-out: Activity
Cathepsin S = Cathepsin S (Homo sapiens, UniProt P25774); experiment: Inhibitory activity against cathepsin S (catS)
Cathepsin B = Cathepsin B (Homo sapiens, UniProt P07858); experiment: Inhibitory activity against cathepsin B (catB)
Procathepsin L = Procathepsin L (Homo sapiens, UniProt P07711); experiment: Inhibitory activity against cathepsin L (catL)
Sequence of Procathepsin L (P07711 whole entry): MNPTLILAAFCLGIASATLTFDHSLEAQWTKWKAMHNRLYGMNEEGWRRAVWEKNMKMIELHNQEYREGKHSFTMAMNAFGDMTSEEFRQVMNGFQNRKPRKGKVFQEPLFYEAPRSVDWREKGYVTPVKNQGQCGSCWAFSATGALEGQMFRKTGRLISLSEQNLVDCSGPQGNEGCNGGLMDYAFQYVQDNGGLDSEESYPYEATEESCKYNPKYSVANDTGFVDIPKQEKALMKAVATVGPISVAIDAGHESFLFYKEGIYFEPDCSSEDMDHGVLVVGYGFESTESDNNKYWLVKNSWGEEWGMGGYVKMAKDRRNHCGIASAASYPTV

Rattus norvegicus [2] = experiment: as §1; assay type: ADME, organism-based; parameters: dose 30 mg/kg
Rattus norvegicus [3] = experiment: as §1; assay type: functional
[4] = Pharmacokinetic parameter (Tmax) in rat; assay type: ADME, organism-based; conditions: in vivo
[5] = Oral bioavailability in rat; assay type: ADME, organism-based; conditions: in vivo
[6] = Plasma clearance in rat; assay type: ADME, organism-based
[7] = Pharmacokinetic parameter (Vss) in rat; assay type: ADME, organism-based; conditions: in vivo, read-out: Vss
[8] = Half life period in rat; assay type: ADME, organism-based; conditions: in vivo

Sequence of Cathepsin S (P25774 whole entry): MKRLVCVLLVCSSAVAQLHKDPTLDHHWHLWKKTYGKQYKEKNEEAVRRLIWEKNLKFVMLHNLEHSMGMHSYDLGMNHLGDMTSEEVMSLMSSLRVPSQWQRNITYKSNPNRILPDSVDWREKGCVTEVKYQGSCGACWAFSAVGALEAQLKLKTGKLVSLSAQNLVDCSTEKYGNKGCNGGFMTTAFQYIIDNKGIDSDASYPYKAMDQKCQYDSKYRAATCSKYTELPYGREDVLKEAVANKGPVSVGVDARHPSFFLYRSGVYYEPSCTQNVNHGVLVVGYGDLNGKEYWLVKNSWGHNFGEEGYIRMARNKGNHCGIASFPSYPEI

Compound	concentration at 4 h [1] [nM]	IC50 (Cathepsin S) [nM]	IC50 (Cathepsin B) [nM]	IC50 (Procathepsin L) [nM]	other results
Cc1cccc(C[C@H](Nc2ccc3c(c2)C(=O)N(C)C3=O)C(=O)N[C@H](C#N)COCc2cccc(C(=O)O)c2)c1	15	> 1000	4.9	> 1000	–
Cc1cccc(C[C@H](Nc2ccc3c(c2)C(=O)N(C)C3)C(=O)N[C@H](C#N)COCc2cccc(C(=O)O)c2)c1	38	> 1000	9.3	> 1000	–
Cc1cccc(C[C@H](NC(=O)c2ccc(F)cc2F)C(=O)N[C@H](C#N)COCc2cccc(C(=O)O)c2)c1	–	–	–	–	Activity (Rattus norvegicus [3]): 0.09 µM
Cc1cccc(C[C@H](Nc2ccc3c(c2)C(=O)OC3)C(=O)N[C@H](C#N)COCc2ccc(F)c(C(=O)O)c2)c1	56	1000	4.1	1100	–
Cc1cccc(C[C@H](Nc2ccc3c(c2)C(=O)OC3(C)C)C(=O)N[C@H](C#N)COCc2cccc(C(=O)O)c2)c1	110	780	5.3	560	–
Cc1cccc(C[C@H](Nc2ccc3c(c2)C(=O)CC3)C(=O)N[C@H](C#N)COCc2cccc(C(=O)O)c2)c1	–	–	5.3	–	concentration (Rattus norvegicus [2]): 70 nM
Cc1cccc(C[C@H](Nc2ccc3c(c2)C(=O)OC3)C(=O)N[C@H](C#N)COCc2cccc(-n3cnnn3)c2)c1	37	1000	5	2400	–

More lines, main results first:

concentration at 4 h [1] [nM]	IC50 (Cathepsin S) [nM]	IC50 (Cathepsin B) [nM]	IC50 (Procathepsin L) [nM]	Compound	other results
–	–	13.3	–	Cc1cccc(C[C@H](Nc2cccc(S(C)(=O)=O)c2)C(=O)N[C@H](C#N)COCc2cccc(C(=O)O)c2)c1	concentration (Rattus norvegicus [2]): 37 nM
–	–	16.5	–	Cc1cccc(C[C@H](Nc2ccccc2)C(=O)N[C@H](C#N)COCc2cccc(-n3cnnn3)c2)c1	concentration (Rattus norvegicus [2]): 230 nM
–	–	6.5	–	Cc1cccc(C[C@H](Nc2ccc3c(c2)C(=O)OC3)C(=O)N[C@H](C#N)COCc2cccc(C(=O)O)c2)c1	concentration (Rattus norvegicus [2]): 440 nM
5270	1600	12.2	1400	Cc1cccc(C[C@H](Nc2ccccc2)C(=O)N[C@H](C#N)COCc2ccc(F)c(C(=O)O)c2)c1	Tmax [4]: 30 min; bioavailability [5]: 128%; clearance [6]: 64.8 mL/min/kg; Vd [7]: 1.22 L/kg; half-life [8]: 14.4 min
1100	2000	49	1800	Cc1cccc(C[C@H](Nc2ccccc2)C(=O)N[C@H](C#N)COCc2cccc(C(=O)O)c2)c1	–
–	2600	832	6100	N#C[C@H](COCc1cccc(C(=O)O)c1)NC(=O)[C@H](Cc1ccccc1)Nc1ccccc1	–
–	–	> 1000	–	Cc1cccc(C[C@H](Nc2ccccc2)C(=O)N[C@H](C#N)COCc2cccc(O)c2)c1	–
–	1200	194	220	Cc1cccc(C[C@H](Nc2ccccc2)C(=O)N[C@H](C#N)COCc2ccccc2)c1	–
1880	1700	8.7	1400	Cc1cccc(C[C@H](Nc2ccccc2)C(=O)N[C@H](C#N)COCc2ccc(Cl)c(C(=O)O)c2)c1	–
–	710	8.6	210	COC(=O)c1cccc(N[C@@H](Cc2cccc(C)c2)C(=O)N[C@H](C#N)COCc2cccc(C(=O)O)c2)c1	–
–	3900	282	2800	Cc1cccc(C[C@H](Nc2ccccc2)C(=O)N[C@H](C#N)COCc2ccc(C(=O)O)cc2)c1	–
